{"source": "patent US8088818B2", "about": "“Catechol-based derivatives for treating or preventing diabetics” (National Taiwan University, priority 2006, dated 2012)", "key": {"Normal rats": {"system": "Normal rats", "assay": "Blood sugar lowering in normal rats after oral administration", "format": "in vivo, rat", "method": "(a) Male Wistar rats are provided from the National Laboratory Animal Breeding and Research Center (Taipei, Taiwan), each of whose weight is about 200-250 grams, and the average age thereof is above 8 weeks. They were housed under conditions of constant temperature (25±1[…]) and controlled illumination (light time and dark time are respectively 12 hours). Food and water were available.\n(d) The administration: Dissolve the medicine equivalently in deionized water, and then administrate the mentioned solution into the normal and diabetic rats by an orally perfusion. Keep with the desired concentration of the perfusion amount by taking suitable amount of the medicine solution according to the weight of the different animal.\nThe rats to be experimented should undergo a starvation for 8-12 hours overnight. Next day, the rats are anesthetized with 30 mg/kg pentobarbital by injecting into the abdominal cavity. After the rats fall asleep, fix the rats on the board with the rubber band. Open the groin, find the veins, bleed 0.1 ml blood from an empty stomach, and then feed the medicine into the body of the rats by taking orally. After 90 minutes, bleed and perform a centrifugation (13,000 rpm, 5 minutes) to separate the serum and the plasma. Take the 10 μl supernatant of the serum and add 1 ml reagent of the glucose kit thereinto by gently mixing. React for 5 minutes at 37 °C, followed by detecting the value of the blood sugar by means of BST330 based on the different absorption level. […] The value of the blood sugar (mg/dL) is calculated by comparing the level of redness with contrasting the standard curve.\n(The value of blood sugar at postadministration)−(The value of blood sugar at preadministration)/(The value of blood sugar at preadministration)×100%\nThe results of the experiments are presented in the average value±the standard error (mean±SE), and the variations therebetween are evaluated according to the Student's t-test, while the variations thereamong are evaluated according to one-way ANOVA and Bonferroni's t-test, wherein P<0.05 is deemed to have apparent differences."}, "[1]": {"system": "rats with coronary artery ligature-reperfusion", "assay": "Coronary artery ligature / reperfusion model of the living rat (area at risk, infarct size)", "format": "in vivo", "settings": "ischaemia 45 minutes, reperfusion two hours", "method": "The grown-up male rats having the weight of 250˜300 grams (Sprague-Dawley strain, purchased BioLASCO Taiwan Co., Ltd.) are anesthetized with 1.25 g/kg urethane by the abdominal cavity injection. After anaesthetization, cut the trachea, connect with the artificial respirator (Harvard Rodent Ventilator Model 983), give 15 ml/kg of the tidal volume, and control the respiratory rate at […], followed by cutting off both sides of the vagus immediately. After the intubation of the right arterial carotis, it is connected to the pressure converter (Statham P23XL transducer) so as to monitor the changes of systemic blood pressure. In addition, the rats' four limbs are connected to the silver electrode, so as to record the changes of the electrocardiogram (ECG). Blood pressures, heartbeats and electrocardiogram curves are recorded and analyzed by the software (MacLab data acquisition system, AD Instrument Pty, Castle Hill, NSW, Australia).\nAfter all previous preparations have been done, open the ribcage by the thoracotomy and cut off the skin layers and muscles to find the rib. Burn the fourth and fifth rib close to 2 mm of the sternum in an electrical knife and stabilize the injury with the retractor followed by rending the pericardial membrane, separating the left atrial appendage gently by the cottons, and clasping the anterior interventricular branch of the left coronary artery immediately between the left atrial appendage and the pulmonary artery by a needle forceps having a silk yarn with a hook. Put loops on both ends of silk yarn to seal the wound by unclamping the retractor. Balance in 15 minutes, and if there exists cardiac arrhythmia or the systolic pressure is lower than 80 mmHg, it will be eliminated.\nAfter the balance, the acute cardiac muscle ischaemia is caused by pushing the loop passed by a silk yarn with a hemostat downwards to be stabilized. Then, unclamp the hemostat and uplift the loop to perform a reperfusion of the coronary artery being ligated by the silk yarn. […] If the same surgical procedure is performed, the rat without administrating the drug and performing an ischaemia and an ischaemia/reperfusion is regarded as the sham group. The rundown of the ischaemia and the ischaemia/reperfusion of the present test is as follows.\nPerform an ischaemia for 45 minutes and perform an ischaemia/reperfusion for 2 hours. Administrate by injecting the drug into the abdominal cavity after perform the ischaemia for 15 minutes.\nInject the approximately 2 ml, 1% methylene blue into the ischaemic area via a jugular vein, where the non-ischemic area is dyed as purple and the ischemic area or area at risk is retained as red. Subsequently, the heart is immediately took out and washed by the physiological salt solution to remove the connective tissue of the atrium and the surplus water. Cut the undyed ischemic area and weight the total ventricle to calculate the ischemic area of the ventricle. Area at risk (% of total ventricular)=(Weight of risk area)/(Total ventricular weight)×100%.\nCut the ischemic area into a slice with the thickness of approximately 1 mm. Immerse the slice into a TTC (2,3,5-triphenyltetrazolium chloride, in saline) solution, and heat the resultant solution at the 37[…] incubator for 30 minutes, followed by replacing the solvent with 10% formaldehyde solution to preserve the resulting solution for two weeks. The living cells are able to produce the dehydrogenase, which could reduce TTC to a crimson formazan precipitate, whereas the dead cells are unable to produce dehydrogenase, which decolor the formazan as a gray precipitate. Cut and weight the gray infraction area and calculate the ratio. Infract Size (% of risk area)=(Weight of infraction)/(Weight of risk area)×100%."}, "coronary artery": {"system": "coronary artery", "assay": "Flow rate of the coronary artery in the isolated perfused rat heart (Langendorff)", "settings": "for coronary flow: isolated Wistar rat heart", "method": "Each of the male Wistar rats weighs about 200-250 grams, and is anesthetized with 25 mg/kg pentobarbital and 16 mg/kg heparin by injecting into the abdominal cavity. After falling asleep, separate the cervical vertebra and immediately take the heart out hanging on the constant pouring pressure circulation instrument (Langendorff, AD Instruments Pty Ltd, ML870B2) and fill a 37[…] pouring solution of 95% of oxygen and 5% of carbon dioxide with the artery (119.7 mM NaCl, 23.8 mM NaHCO3, 5.6 mM glucose, 1.2 mM CaCl2, 1.1 mM MgCl2, 0.3 mM NaH2PO4, and 5.0 mM KCl), which washes the heart and clean out the blood water by pouring in a reverse direction. The rate of the reverse pouring is 10 ml/min, followed by maintaining the pouring pressure of the coronary artery at 80 mmHg. After balancing for thirty minutes, measure the rate of the pouring solution flowing in the heart, and observe the change of the rate the pouring solution flowing in the heart while the testing drug is added."}}, "data": [{"smiles": "O=C(/C=C/c1ccc(O)c(O)c1)NCCc1ccccc1", "note": "[370G (45)]", "values": [{"measurement": "% decrease in plasma glucose", "setting": "Normal rats; 0.5 mg/kg oral, Table 14", "result": "32.8 ± 3.4", "unit": "%"}, {"measurement": "Post-treatment Plasma glucose", "setting": "Normal rats; 0.5 mg/kg oral, post-treatment", "result": "81.0 ± 5.7", "unit": "mg/dL"}, {"measurement": "Pre-treatment Plasma glucose", "setting": "Normal rats; 0.5 mg/kg oral, pre-treatment (baseline)", "result": "120.5 ± 5.3", "unit": "mg/dL"}, {"measurement": "effect for reducing the blood sugar, compared among rat models", "setting": "Normal rats; normal rat", "result": "strongest effect"}, {"measurement": "% decrease in plasma glucose", "setting": "Normal rats; normal rats, 0.01 mg/kg oral, 90 min", "result": "11.4 ± 3.1", "unit": "%"}, {"measurement": "% decrease in plasma glucose", "setting": "Normal rats; normal rats, 0.05 mg/kg oral, 90 min", "result": "32.0 ± 1.1", "unit": "%"}, {"measurement": "% decrease in plasma glucose", "setting": "Normal rats; normal rats, 0.1 mg/kg oral, 90 min", "result": "32.9 ± 2.3", "unit": "%"}, {"measurement": "% decrease in plasma glucose", "setting": "Normal rats; normal rats, 0.5 mg/kg oral, 90 min", "result": "32.8 ± 3.4", "unit": "%"}, {"measurement": "% decrease in plasma glucose", "setting": "Normal rats; normal rats, 1.0 mg/kg oral, 90 min", "result": "29.5 ± 1.7", "unit": "%"}, {"measurement": "reducing the blood sugar (in words)", "setting": "Normal rats; normal rats, oral 0.05 to 1.0 mg/kg", "result": "phenomenon of reducing the blood sugar are shown"}, {"measurement": "ratio of the areas at risk in the overall area", "setting": "[1]; 15 mg/kg", "result": "41.1±1.3", "unit": "%"}, {"measurement": "ratio of the areas at risk in the overall area", "setting": "[1]; 10^−6 mg/kg", "result": "39.1±1.9", "unit": "%"}, {"measurement": "infract size (% of risk area)", "setting": "[1]; 10^−5 mole/kg (approximately 2.8 mg/kg)", "result": "68.8±2.9", "unit": "%"}, {"measurement": "infract size (% of risk area)", "setting": "[1]; 10^−6 mole/kg (approximately 0.28 mg/kg)", "result": "70.9±2.8"}, {"measurement": "infract size (% of risk area)", "setting": "[1]", "result": "62.8±1.8", "unit": "%"}, {"measurement": "ratio of the areas at risk in the overall area", "setting": "[1]", "result": "36.7±2.3", "unit": "%"}, {"measurement": "effect on coronary flow rate (in words)", "setting": "coronary artery; Wistar rats, Tables 15 and 16", "result": "capable of increasing the coronary flow rate"}, {"measurement": "coronary flow", "setting": "coronary artery; conc. 0 (baseline)", "result": "11.8 ± 1.0", "unit": "mL/min"}, {"measurement": "coronary flow", "setting": "coronary artery; conc. 0.1 (unit printed .[…]M)", "result": "12.4 ± 1.1", "unit": "mL/min"}, {"measurement": "coronary flow", "setting": "coronary artery; conc. 0.3 (unit printed .[…]M)", "result": "13.2 ± 1.4", "unit": "mL/min"}, {"measurement": "coronary flow", "setting": "coronary artery; conc. 1 (unit printed .[…]M)", "result": "15.6 ± 1.2", "unit": "mL/min"}, {"measurement": "coronary flow", "setting": "coronary artery; conc. 3 (unit printed .[…]M)", "result": "17.4 ± 1.3", "unit": "mL/min"}, {"measurement": "coronary flow", "setting": "coronary artery; conc. 10 (unit printed .[…]M)", "result": "19.5 ± 0.7", "unit": "mL/min"}]}]}
